Source: patent US6489535B1, “Non-mammalian transgenic animal having an adult onset neurodegenerative phenotype” (priority 1999, dated 2002)
Where two headings read alike, the source gives them in different places.

How the values were obtained:
[1] = system: AON mutant fly strain; assay: whole plant or invertebrate; assay type: in vivo, Drosophila melanogaster; conditions: for Phenotype AON + E: larva fed .5 μg/ml estrogen, >90% of 100 flies; on Phenotype AON + E: key: None = normal adult fly; WC = loss of wing control; WP = wings paralyzed; C = loss of coordination and locomotion capabilities; L = flies stop uptaking liquid; D = death
Procedure: (§1) Each compound was prepared over a range of dilutions and each was tested for the activity of alleviating the adult onset neurodegeneration condition. The compound dilutions were uptaken by either the larva or adult flies. The compound dilutions were mixed into the nutrient media and this served as the food/water source for either larva or flies. The adult onset neurodegeneration symptoms and their timelines were monitored for each compound dilution and compared to the no treatment control. Compounds examined here included: beta-estradiol, zinc chloride, sodium chloride, water, chocolate, and phosphate buffered saline.
In addition, compounds were also tested in the AON mutant fly strain that were known not to influence human AON conditions. Finally, a complex mixture with unknown influence on human AON conditions was tested in the AON mutant fly strain.

[2] = system: wild-type adult flies; assay: Wild-type flies fed estrogen, phenotype by adult age; assay type: in vivo, Drosophila melanogaster; conditions: larva fed .5 μg/ml estrogen; further: key: None = normal adult fly; WC = loss of wing control; WP = wings paralyzed; C = loss of coordination and locomotion capabilities; L = flies stop uptaking liquid; D = death
Procedure: as §1

[3] = Drosophila melanogaster, po, read-out: S increased (S = AON symptom free adult time span)

Compound: Cc1c(C)c2c(c(C)c1O)CC[C@@](C)(CCC[C@H](C)CCC[C@H](C)CCCC(C)C)O2 [Alpha Tocopherol]
- L.D. ([1]; dose 1 mg/ml): L.D. 30,
- D increased (D = life span) ([1]; dose 1 mg/ml, escapers): increased 33%
- S increased (S = AON symptom free adult time span) ([1]; dose 1 mg/ml, escapers): 200%, D

Compound: CN1[C@@H]2CC[C@H]1C[C@@H](OC(c1ccccc1)c1ccccc1)C2 [Benztropine]
- change in vivo at 0.023 µg/mL [1, 3]: 400%
- change in vivo at 0.23 µg/mL [1, 3]: 300%
- change in vivo at 23 µg/mL [1, 3]: 500%
- D increased (D = life span) ([1]; dose .000023 mg/ml): 33%
- D increased (D = life span) ([1]; dose .00023 mg/ml): 17%
- L.D., AON class ([1]; dose .023 mg/ml, AON class): L.D. 95,
- L.D. ([1]; dose .23 mg/ml): L.D. 100

Compound: CC(C)C[C@H]1C(=O)N2CCC[C@H]2[C@]2(O)O[C@](NC(=O)[C@@H]3C=C4c5cccc6[nH]c(Br)c(c56)C[C@H]4N(C)C3)(C(C)C)C(=O)N12 [Bromocriptine]
- change in vivo at 10 µg/mL ([1]; Drosophila melanogaster, po, dose .01 mg/ml, read-out: S increased (S = AON symptom free adult time span)): 33%
- L.D. ([1]; dose .1 mg/ml): L.D. 100

Compound: CN1C(=O)CN=C(c2ccccc2)c2cc(Cl)ccc21 [Diazepam]
- L.D. ([1]; AON mutant fly strain, Drosophila melanogaster, in vivo): L.D. 100
- result (effect on AON phenotype) ([1]; in vivo): No Effect

Compound: C[C@]12N[C@H](Cc3ccccc31)c1ccccc12 [Dizocilipine]
- S increased (S = AON symptom free adult time span) ([1]; dose .00006 mg/ml): 17%
- AON symptoms delayed ([1]; dose .0006 mg/ml): delayed 2 days
- AON growth ([1]; dose .06 mg/ml): delayed
- result (effect on AON phenotype) ([1]; dose .06 mg/ml): No
- L.D. ([1]; in vivo): L.D. 100

Compound: N[C@@H](Cc1ccc(O)c(O)c1)C(=O)O [Levodopa]
- change in vivo at 0.15 µg/mL [1, 3]: 100%

Compound: CCN(CC)C(=O)N[C@H]1C=C2c3cccc4[nH]cc(c34)C[C@H]2N(C)C1 [Lisuride]
- change in vivo at 2 µg/mL ([1]; Drosophila melanogaster, po, dose .002 mg/ml, read-out: S increased (S = AON symptom free adult time span)): 100%
- L.D. ([1]; dose 2 mg/ml): L.D. 100
- L.D. ([1]; dose .002 mg/ml): L.D. 60, S
- L.D. ([1]; dose .02 mg/ml, (no AON flies)): L.D. 99 (no
- L.D. ([1]; dose .2 mg/ml): L.D. 100

Compound: COc1ccc2[nH]cc(CCNC(C)=O)c2c1 [Melatonin]
- L.D. ([1]; dose 5 mg/ml): L.D. 100
- result (effect on AON phenotype) ([1]; dose .0005 mg/ml): No Effect
- result (effect on AON phenotype) ([1]; dose .005 mg/ml): No Effect
- result (effect on AON phenotype) ([1]; dose .05 mg/ml): No Effect
- result (effect on AON phenotype) ([1]; dose .5 mg/ml): No Effect

Compound: NC(=O)c1cccnc1 [Nicotinamide]
- change in vivo at 5000 µg/mL [1, 3]: 100%
- L.D. ([1]; dose 5 mg/ml): L.D. 90, S

Compound: CCCn1cnc2c1c(=O)n(CCCCC(C)=O)c(=O)n2C [Propentofylline]
- change in vivo at 5000 µg/mL [1, 3]: 200%
- L.D. ([1]; dose 5 mg/ml): L.D. 80,
- D increased (D = life span) ([1]; dose 5 mg/ml, escapers): 17%

Compound: Nc1nc2ccc(OC(F)(F)F)cc2s1 [Riluzole]
- change in vivo at 10 µg/mL [1, 3]: 100%
- D increased (D = life span) ([1]; dose .01 mg/ml): increased 17%

Compound: C#CCN(C)[C@H](C)Cc1ccccc1 [Selegiline]
- change in vivo at 0.2 µg/mL ([1]; Drosophila melanogaster, po, dose .0002 mg/ml, read-out: S increased (S = AON symptom free adult time span)): 200%
- change in vivo at 20 µg/mL ([1]; Drosophila melanogaster, po, dose .02 mg/ml, read-out: S increased (S = AON symptom free adult time span)): 100%
- L.D. ([1]; dose 2 mg/ml): L.D. 100
- L.D., AON class only ([1]; dose .2 mg/ml, AON class only): only, L.D. 95,
- result (effect on AON phenotype) ([1]; dose .2 mg/ml, escapers): No Effect

Compound: Nc1c2c(nc3ccccc13)CCCC2 [Tacrine]
- change in vivo at 0.5 µg/mL [1, 3]: 100%

Compound: OC(CCN1CCCCC1)(c1ccccc1)C1CCCCC1 (centres unmarked) [Trihexyphenidyl]
- change in vivo at 100 µg/mL [1, 3]: ~25%
- change in vivo at 1000 µg/mL [1, 3]: 33%

Compound: [Cl-].[Cl-].[Zn+2] [Zinc, zinc chloride]
- effect on the AON condition ([1]; higher concentrations, 50-100 μgrams/ml of nutrient media, oral): exacerbated the AON condition
- effect on the mutant AON fly strain ([1]; low concentrations, 10-20 μgrams/ml of nutrient media, oral): no effect was observed

Compound: CCCN1C[C@H](CSC)C[C@@H]2c3cccc4[nH]cc(c34)C[C@H]21 [pergolide]
- effect in the AON fly drug screening ([1]; dose not stated): did not show any effect

Compound: [Cl-].[Na+] [sodium chloride]
- effect on the AON phenotype in the mutant fly strain ([1]; oral, dose not stated): no effect

Compound: beta-estradiol [Estrogen]
- Phenotype Wt + E ([2]; age of adult 0-1 hours): None
- Phenotype Wt + E ([2]; age of adult 1-3 hours): None
- Phenotype Wt + E ([2]; age of adult 3-24 hours): None
- Phenotype Wt + E ([2]; age of adult 24-36 hours): None
- Phenotype Wt + E ([2]; age of adult 36-72 hours): None
- Phenotype Wt + E ([2]; age of adult 72-144 hours): None
- Phenotype Wt + E ([2]; age of adult 144+ hours): None
- effect on the AON condition in the mutant fly strain ([1]; administered orally): alleviates the AON condition
- Phenotype AON + E ([1]; age of adult 0-1 hours): None
- Phenotype AON + E ([1]; age of adult 1-3 hours): None
- D increased (D = life span) ([1]; dose 5 mg/ml): increased 68%
- S increased (S = AON symptom free adult time span) ([1]; dose 5 mg/ml): 100%, D
- S increased (S = AON symptom free adult time span) ([1]; dose .5 mg/ml): 200%
